Results: the METLIN SMRT retention time set (Domingo-Almenara et al. 2019)

Experiment: gradient 5% acetonitrile 3 min, to 50% in 2 min, to 85% in 15 min, held 3 min, 100 µL/min
Conditions: column: Zorbax Extend-C18 2.1 x 50 mm; eluents: water / acetonitrile, 0.1% formic acid
Outline: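 Retention times of pure standards were taken from adduct peaks that were selected by computer and manually inspected. Over 3 months, mixtures of ~100 molecules were run by HPLC–quadrupole time-of-flight mass spectrometry in positive and negative ionization mode. The Zorbax Extend-C18 column (2.1 × 50 mm, 1.8 μm) ran at 100 μL/min in water and acetonitrile, each containing 0.1% formic acid, with 40 μL dead volume and 900 μL dwell volume.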

Structure (SMILES)	RP-LC retention time [s]
Cc1nc(-c2ccc3c(c2)n(CC(=O)NC2CC2)c(=O)n3C(C)C)no1	685
O=C(CN1CCC(c2nc(-c3cccc(F)c3)no2)CC1)Nc1ccc2c(c1)OCO2	719
O=C(c1n[nH]c2ccccc12)N1CCn2c(nnc2-c2ccccc2)C1	664
CCCn1c(-c2cccc(C(=O)NCc3c(C)cc(C)cc3C)c2)nc2cccnc21	979
Cc1ccc(-n2nnnc2CNC(=O)Nc2ccc(Cl)c(Cl)c2)cc1C	944
CC1=C(c2ccccc2)S(=O)(=O)N=C1N1CCC(NC(=O)c2ccoc2)CC1	733
CCNC(=O)c1cc(C2CC2)[nH]n1	611
O=C(c1sc2ncccc2c1-n1cccc1)N1CCSCC1	842
CCNC(=O)N1CCC(c2noc(-c3ccccn3)n2)C1 (centres undefined)	594
Cc1ncsc1CN1CCCC(c2nc(C(C)C)no2)CCNC(=O)CC1 (centres undefined)	598
Cc1noc(C)c1-c1ccc(S(=O)(=O)NCC2CCCO2)cc1 (centres undefined)	767
CCOC(=O)c1c(C)n(Cc2ccco2)c2ccc(O)cc12	854
O=C(Nc1ccc(N2CCOCC2)cc1)C1CN(S(=O)(=O)C2CC2)CC12CCCCC2 (centres undefined)	812
Cc1cc(F)ccc1NC(=O)Cn1c(N)nc(C)c(C)c1=O	617
CCc1noc(NC(C)=O)c1-c1ccc(OC)c(S(=O)(=O)Nc2ccc(Cl)cc2C)c1	841
O=C1CC(C(F)(F)F)c2c(c(C(=O)O)cn2-c2ccc(F)cc2)N1 (centres undefined)	727
COc1ccc(C2CC(=O)N(Cc3ccccc3)C(=O)C2)cc1OC	904
Fc1ccccc1-c1noc(N2CCOCC2)n1	796
CCCN1CCN(C(=O)CN2C(=O)C3CCCCN3c3ccc(C(=O)N4CCCCC4)cc32)CC1 (centres undefined)	652
CCOC(=O)c1ccc(OCCC2CCN(c3ccc(C)nn3)CC2)cc1	837
Cc1ccc(-c2ccc(CNc3ncn[nH]3)o2)cc1Cl	731

Structure (SMILES)	RP-LC retention time [s]
O=C(C1CCCCC1)N1CCN(c2cc(-c3ccc(Cl)cc3)[nH]n2)CC1	910
CN1C(=O)c2cccnc2Sc2cc(NC(=O)C3CCCC3)ccc21	749
COc1ccc(-c2noc(C3(NC(=O)c4ccccc4OC)CCCCC3)n2)cc1	1210
Cc1cccc(Nc2nnc(CC(=O)Nc3cc(F)ccc3Cl)s2)c1	872
CN(C)C(=O)c1cc2c(s1)CCC(C(=O)NCc1nc3ccccc3n1C)C2 (centres undefined)	595
CS(=O)(=O)Nc1ccc(C2(C(=O)NC3CCCC3)CCCCC2)cc1	634
Cc1noc(C)c1CC(=O)NCc1cccnc1Oc1ccccc1	734
O=C(Cc1csc(-n2cccc2)n1)N1CCN(c2ccccn2)CC1	623
CC1=C(c2ccc(F)cc2)S(=O)(=O)N=C1N1CCCN(C(=O)NCCC(C)C)CC1	837
CCn1nccc1-c1cccc(-c2noc(-c3cccc(NC(C)=O)c3)n2)c1	924
COc1ccc(-c2cc(N3CCCC(C(=O)Nc4nccs4)C3)ncn2)cc1 (centres undefined)	582
CCOc1ccc(NC(=O)NCC(c2cccnc2)c2cn(CC)c3ccccc23)cc1 (centres undefined)	751
O=C(CN1C(=O)CSCC1=O)Nc1ccc2c(c1)OCO2	638
CC(C)OCCCNC(=O)Cn1nc2c(cc1=O)CCCCC2	698
COc1ccc(C(=O)c2cccc(N)c2)cc1OC	630
Cn1nccc1-c1cccc(-c2noc(-c3ccc(C#N)cc3)n2)c1	1050
Cc1ccc(Nc2c(-c3ccc(N4CCOCC4)cc3)nc3ccc(C)cn23)cc1	739
O=C(CCC1CCCN(c2cc(NC3CC3)ncn2)C1)NC1CCN(Cc2ccccc2)CC1 (centres undefined)	570
COc1ccccc1CN1C[C@@H]2C(=O)N(CCCN3CCCC3=O)C(=O)[C@@H]2C1	586
COc1ccc(Cl)cc1C(=O)N1CCC(C(=O)Nc2nccs2)CC1	697
COc1ccc(-c2nnc(N3CCC(C(=O)NCc4cc(F)cc(F)c4)CC3)o2)cc1	899

Other lines, results leading:

RP-LC retention time [s]	Structure (SMILES)
1050	COc1ccc(CNC(=O)Nc2ccc(-c3nc(-c4ccccc4)co3)cc2)cc1
963	Cc1ccc(N2C(=O)CN(S(=O)(=O)c3ccccc3)CC2(C)C(=O)NC2CCCC2)cc1C (centres undefined)
832	COc1cccc2cc(C(=O)Nc3cc(C)nn3-c3ccccc3)oc12
1110	CCc1ccc(-c2nc(C3CC(=O)N(c4ccc(F)cc4)C3)no2)cc1 (centres undefined)
922	C=CCN1C(=O)COc2ccc(-c3nc(NC(=O)C(C)C)sc3C)cc21
656	COc1cc(CCNCc2c(C(=O)O)n(C)c3ccccc23)cc(OC)c1OC
574	CN(C)S(=O)(=O)c1ccc(-c2nnc(C(=O)NCCN3CCCC3)o2)cc1
690	O=C(Nc1ccc(Br)cc1F)N1CCC(n2cnc3cccnc32)CC1
1100	CCOc1ccccc1-c1noc(Cn2c(=O)n(Cc3ccc(F)cc3)c(=O)c3sccc32)n1
692	O=C(CN1CCC2(CC1)N=C(c1ccc(F)cc1)C(=O)N2)Nc1cc(F)ccc1F
968	COc1cc(-c2noc(Cc3nnc(-c4cc(F)cc(F)c4)o3)n2)cc(OC)c1OC
603	Cn1cnc2cc(CNC(=O)c3ccc4cc[nH]c4c3)ccc21
776	Cc1ccc(-c2cnn3c(N4CCN(c5cccc(C)n5)CC4)cc(C)nc23)cc1
920	Cc1ccc(C)c(N2CCN(c3ccnc(SCC(=O)NCCC(C)C)n3)CC2)c1
975	CCc1ccc(CNC(=O)CN2C(=O)C3CCCCN3c3ccc(S(=O)(=O)N(C)C)cc32)cc1 (centres undefined)
846	CC(NC(=O)CC1CCN(S(=O)(=O)c2ccccc2)CC1)c1ccc2c(c1)OCCO2 (centres undefined)
597	CN1CCC(NC(=O)c2n[nH]c3c2CN(C(=O)c2cc(F)cc(F)c2)CC3)CC1
1260	Cc1cccc(-c2noc(Cn3ncn4nc(-c5ccc(Br)cc5)cc4c3=O)n2)c1
989	O=c1n(Cc2cccc(Cl)c2)nc2ccc(S(=O)(=O)N3CCCCC3)cn12
678	COc1ccc(NC(=O)c2[nH]c3cc(C)sc3c2CN(C)C)c(OC)c1
724	CCc1noc(-c2cnc3nc(C)ccc3c2NCc2ccccc2OC)n1
787	COCCN1C(=O)CCC2(C(=O)NCc3ccc(Cl)cc3)CCCC=C12 (centres undefined)
784	COc1ccc(NC(=O)N2CCC(c3nc(C(=O)N4CCCCC4)c(C)o3)CC2)cc1F
930	COc1ccc(N2CC(c3nc(-c4cccs4)no3)CC2=O)cc1Cl (centres undefined)

RP-LC retention time [s]	Structure (SMILES)
1280	Cc1ccc(-c2nc(-c3ccc4c(c3)oc(=O)n4C(C)C)no2)cc1
1030	COc1ccccc1Cc1noc(C2CN(S(=O)(=O)c3ccc(F)c(Cl)c3)C2)n1
1020	O=C1N(c2ccc(F)cc2)c2ncccc2S(=O)(=O)N1Cc1ccccc1
1140	CCOC(=O)C1CCN(c2ncccc2-c2nnc(-c3ccc(C)cc3)o2)CC1
646	CCc1cc(C(=O)N2CCN(CC)CC2)nc2cc(-c3cccs3)nn12
594	COCC(C)(O)CNC(=O)Nc1cccs1 (centres undefined)
956	COc1ccccc1-c1nc2nccc(-c3ccc(Cl)cc3)n2n1
620	CCC1CN(C(=O)N2CCC(C(=O)NCCN3CCCC3)CC2)c2ccccc2O1 (centres undefined)
594	Cn1cc(S(=O)(=O)N2CCCC2)cc1C(=O)N1CCN(c2ccccn2)CC1
930	CCOC(=O)c1cnc2ccc(OCC)cc2c1N1CCN(c2ccccc2)CC1
1050	COc1ccccc1CNc1nc2ccccc2nc1NS(=O)(=O)c1cccs1
570	CCC(CO)Nc1ncc([N+](=O)[O-])c(N)n1 (centres undefined)
715	COc1ccc(OC)c2sc(N(CCN(C)C)C(=O)c3nc4ccccc4s3)nc12
974	Cc1ccc(N2C=C(C(=O)N3CCC(C)CC3)S(=O)(=O)c3ccccc32)cc1F
1120	Fc1ccc(-n2cc(-c3noc(-c4nccc5ccccc45)n3)nn2)cc1
813	O=C(c1nccc2ccccc12)N1CCCCC1c1nc(C2CC2)no1 (centres undefined)
869	O=C(NCc1ccc(F)cc1)c1ccc(-c2cccs2)nc1
966	CC(C)(C)c1ccc(O)c(NC(=O)c2cn(-c3ccc(S(=O)(=O)N4CCOCC4)cc3)cn2)c1
775	Cc1ccc(-n2cc3c(N4CCCC(C(=O)NCc5ccccc5C(F)(F)F)C4)ncnc3n2)cc1 (centres undefined)
678	Cc1cccc(NS(=O)(=O)c2cc(-c3[nH]ncc3C(=O)N(C)C)oc2C)c1
834	Fc1cccc(-c2noc(-c3ccc(N4CCN(Cc5ccc6c(c5)OCO6)CC4)nc3)n2)c1
666	O=C(c1cccc(-n2cnnn2)c1)N1CCN(Cc2nc(-c3ccc(F)cc3)cs2)CC1
872	CC(C)Cn1nc(CNC(=O)C2CCC2)c2ccccc21
